Measurements taken from patent US20020058077A1, “Cancer chemotherapeutical and chemopreventive agent” (priority 2000, published 2002).
*1 amine or outer side, *2 acyl side, *3 side chain or, on linkers, in order; H or OH if unused. Where a SMILES comes first, the peptide text is derived from it. Bridges are numbered along the chain shown (N, C = ends). Roman numbers before positions name the chains, in order. [ ]: non-standard residue; d: D form. Actinocin(9to1) = Cc1c2oc3c(C)ccc(C(=O)[*:1])c3nc-2c(C(=O)[*:2])c(N)c1=O; NMeV = CN[C@H](C(=O)O)C(C)C; Sar = CNCC(=O)O

Tests used:
[1] = system: CNE1 cells; conditions: for apoptotic cell death in TNF-α treated cells after pretreatment: PDTC 25 μM, Act D 5 μg/ml, CHX 5 μg/ml or NS398 10 μM × 30 min
Description: (§1) TNF-α (final concentration 15 ng/ml) was used as the positive stimulus to promote NF-κB activation in cultured cells.
Apoptosis was determined by the following assays: (i) cell morphological alterations examined under an inverted microscope, (ii) PARP cleavage determined by western blot, and (iii) TUNEL assay which was analysed using both flow cytometry and confocal microscope (Shen et al., 2000), in both attached and detached cells after various treatments.

[2] = system: COX-2; test: RT-PCR analysis of COX-2 mRNA in TNF-α treated CNE1 cells; conditions: Act D 5 μg/ml × 30 min; TNF-α 15 ng/ml × 6 h
Description: as §1
RNA extraction was carried out using a total RNA extraction kit (TRIzol, Life Technologies). Briefly, cells were collected by scrapping after various treatments and washed with cold PBS once before they were lysed in the TRIzol reagent. […] Finally the RNA samples were dissolved in DEPC-H2O and quantified (1 A260=40 μg/ml). Five micrograms of total RNA from each sample were subjected to reverse transcription using Superscript II reverse transcriptase (Life Technologies) in a total volume of 50 μl. For PCR, all the amplification reactions were carried out in 20 μl which included 200 pmol of each primers, 200 μM of each dNTPs, and 0.5 units of DyNAzyme II. The PCR was performed for 30 cycles, using a program of 95° C. for 30 sec, 57° C. for 30 sec, and 72° C. for 30 sec, followed by a 10 min extension at 72° C., in a Biometra T-gradient Thermal Cycler. […] The PCR conditions were optimised to achieve exponential amplification in which the PCR product formation is proportional to the starting cDNA.

[3] = system: PGE2 production; test: PGE2 level released from CNE1 cells by enzyme immunoassay (EIA); assay type: cell-based, human
Description: The PGE2 level in the cell culture medium after various treatments was determined using an EIA kit (Cayman) according to protocol from the manufacturer. Each sample was assayed at two dilutions and each dilution in triplets. The results were presented as the fold of increase comparing to that of the control group.

[4] = system: NF-κB; test: NF-κB luciferase reporter gene assay in transfected CNE1 cells; assay type: cell-based, human; conditions: PDTC 25 μM, Act D 5 μg/ml or CHX 5 μg/ml × 30 min; TNF-α 15 ng/ml × 24 h; order PDTC <Act D <CHX
Description: The pNF-κB-luc vector and the negative control pTAL-luc vector were purchased as part of the Mercury Pathway Profiling Luciferase System from Clontech Laboratories. […] The transient transfection of the above plasmids into cultured CNE1 cells were performed using TransFast™ Transfection Reagent (Promega) according to the manufacturer's protocol. Briefly, when cells reached about 80% confluence in 24-well plates (approximately 10×10^4 cells per well in 0.5 ml culture medium), the growth medium from each well was removed by aspiration. […] After incubated for 1 h at 37° C., 300 μl of prewarmed complete medium was added into each well and incubated for 24 h. Transfected cells were then subjected to various treatments. The luciferase activity was measured in the cellular extracts using a luciferase assay kit (Promega). Following the treatment, the cell lysate was collected from each well after the addition of 1× cell culture lysis reagent (50 μl/well, Promega). The relative light units (RLU) were then determined in a luminometer (Lumi-one, Trans Orchid, Tampa, Fla.) for a total period of 15 sec after a 5 sec delay time.

[5] = system: COX-2; test: COX-2 protein level in TNF-α treated CNE1 cells by western blot; conditions: CHX 5 μg/ml × 30 min; TNF-α 15 ng/ml × 24 h
Description: as §1
Various cell extracts (cytosolic, nuclear or whole cell) were prepared as described earlier. Equal amounts (30 μg) of protein were separated on SDS-polyacrylamide gel in the Mini-PROTEAN II system (Bio-Rad). After electrophoresis, the protein was transferred onto a Hybond-C nitrocellulose membrane (Amersham) at 4° C. using the Mini Trans-Blot Module (Bio-Rad). The membrane was blocked overnight with 5% nonfat milk in TBST (10 mM Tris-HCl, pH 7.5, 100 mM NaCl, 0.1% Tween 20), and then incubated with various primary antibodies for 2 h at room temperature. After 5 washes with TBST, the membrane was exposed to respective secondary antibodies for 1 h. The blots were detected using the enhanced chemiluminescence method (Pierce).

[6] = Act D 5 μg/ml × 30 min pretreatment, then TNF-α 15 ng/ml × 24 h

| SMILES | PARP cleavage [1, 6] | detached apoptotic cells [1, 6] | apoptotic cell death in TNF-α treated cells after pretreatment ([1]; then TNF-α 15 ng/ml × 24 h) | COX-2 mRNA level [2] | PGE2 production ([3]; NS398 10 μM × 30 min, TNF-α 15 ng/ml × 24 h) | potency for the inhibition of PGE2 production compared with parthenolide ([3]; TNF-α treated CNE1 cells) | apoptosis induction compared with parthenolide ([1]; TNF-α treated CNE1 cells) | NF-κB dependent transcription (luciferase) [4] | COX-2 protein level [5] |
| --- | --- | --- | --- | --- | --- | --- | --- | --- | --- |
| Cc1c2oc3c(C)ccc(C(=O)N[C@@H]4C(=O)N[C@H](C(C)C)C(=O)N5CCC[C@H]5C(=O)N(C)CC(=O)N(C)[C@@H](C(C)C)C(=O)O[C@@H]4C)c3nc-2c(C(=O)N[C@@H]2C(=O)N[C@H](C(C)C)C(=O)N3CCC[C@H]3C(=O)N(C)CC(=O)N(C)[C@@H](C(C)C)C(=O)O[C@@H]2C)c(N)c1=O [Act D, actinomycin D] (I: T[dV]P[Sar][NMeV] / II: T[dV]P[Sar][NMeV]; ester I:1-I:C, II:1-II:C; linker I:N-II:N via Actinocin(9to1)) | complete cleavage | ~100% | severe apoptosis | markedly reduced |  |  |  |  |  |
| CS(=O)(=O)Nc1ccc([N+](=O)[O-])cc1OC1CCCCC1 [NS398] |  |  | significantly enhanced |  | completely abolished | higher potency | less effective |  |  |
| C[C@@H]1C[C@@H]([C@H](O)CC2CC(=O)NC(=O)C2)C(=O)[C@@H](C)C1 [CHX, cycloheximide] |  |  | severe apoptosis |  |  |  |  | capable of inhibiting | Significant reduction |
